Test results: patent US20240116985A1, “STAPLED PEPTIDES AND METHODS THEREOF” (priority 2020, published 2024)
“And” between values parts separate entries of the source, which are not always exact repeats. Identical values can stand only once. Like-named read-outs stand apart in the source and are kept apart here.

Experiments:
[1] = biological target: T1, full-length beta-Catenin (Uniprot ID P35222) (Homo sapiens, UniProt P35222); assay: Fluorescence polarization IC50 (beta-catenin / 5FAM-TCF4 10-53 competition); format: binding; details: read-out: beta-Catenin FP IC50
T1 construct: 10 nM full-length beta-Catenin (Uniprot ID P35222)
T1 sequence (P35222 1-781): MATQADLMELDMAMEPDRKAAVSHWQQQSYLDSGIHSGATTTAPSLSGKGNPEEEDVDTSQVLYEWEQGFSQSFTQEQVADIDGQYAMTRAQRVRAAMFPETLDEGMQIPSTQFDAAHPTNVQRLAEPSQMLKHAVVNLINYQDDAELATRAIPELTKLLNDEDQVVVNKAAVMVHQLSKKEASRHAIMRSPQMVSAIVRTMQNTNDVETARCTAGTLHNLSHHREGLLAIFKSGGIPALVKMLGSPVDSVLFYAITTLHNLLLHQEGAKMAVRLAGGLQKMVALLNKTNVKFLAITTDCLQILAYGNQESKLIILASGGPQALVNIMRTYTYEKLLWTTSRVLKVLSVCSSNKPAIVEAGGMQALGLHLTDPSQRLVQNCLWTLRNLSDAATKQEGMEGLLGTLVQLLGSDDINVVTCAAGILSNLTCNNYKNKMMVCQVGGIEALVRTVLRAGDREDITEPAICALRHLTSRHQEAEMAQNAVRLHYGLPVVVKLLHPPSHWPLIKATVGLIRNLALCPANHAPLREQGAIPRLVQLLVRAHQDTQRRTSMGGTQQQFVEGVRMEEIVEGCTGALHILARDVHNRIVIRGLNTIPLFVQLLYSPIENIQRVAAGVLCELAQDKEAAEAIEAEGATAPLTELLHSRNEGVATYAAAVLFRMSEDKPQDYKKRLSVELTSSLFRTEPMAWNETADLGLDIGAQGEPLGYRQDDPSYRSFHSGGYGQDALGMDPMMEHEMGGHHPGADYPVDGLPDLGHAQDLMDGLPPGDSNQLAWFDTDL

CHI Log D procedure = format: physicochemical; details: pH 7.4, CHI Log D
[2] = biological target: T2, beta-catenin/TCF4 engagement (Homo sapiens, UniProt P35222); assay: Nano-BRET target engagement assay (B-cat-Halo & TCF4-Luc in HEK293 cells); format: cell-based; details: for inhibition at 10 µM: HEK293, 10 uM
T2 construct: expressed in transfected cells; host or cells: HEK293
T2 sequence (P35222 1-781): T1 sequence (P35222 1-781)

[3] = test system: TCF/LEF luciferase Reporter in DLD1 cells; assay: TCF reporter assay (DLD1 TCF/LEF luciferase reporter, Bright-Glo); format: cell-based; details: read-out: DLD1 4% Abs IC50; DLD1 4%
Summary of the method: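 Readouts: Bright-Glo luciferase for reporter signal and CellTiter-Glo for cell viability, with absolute IC50 derived. The reporter clone came from lentiviral TCF/LEF-luciferase transduction of DLD1 cells, seeded 5000 cells/well in RPMI with 4% FBS and exposed overnight to serially diluted compounds.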

[4] = plate row B = 20 uM, integration 0.3 s, reading 1

IC50 [1]: 0.006 µM | chromatographic logD (CHI Log D procedure): 2.03 | BRET % Inhibition ([2]; 0.625 uM, replicates): −32.1% and −5.3% and 6.3% | BRET % Inhibition ([2]; 1.25 uM, replicates): −6.1% and −18.2% and −25.1% | BRET % Inhibition ([2]; 2.5 uM, replicates): −23.7% and 8.1% and −9.2% | BRET % Inhibition ([2]; 5 uM, replicates): 6.8% and −15.3% and 30.1% | BRET % Inhibition ([2]; 10 uM, replicates): 24.5% and 21.5% | BRET % Inhibition ([2]; 20 uM, replicates): 52.9% and 40.7% and 71.4% | inhibition at 10 µM ([2]; read-out: NanoBRET % inh @ 10 uM): 53% | inhibition at 10 µM ([2]; replicates, read-out: BRET % Inhibition): 35.7% | BRET Acceptor 600 LP raw reading [2, 4]: 450 and 280 | BRET Donor 450 BP raw reading [2, 4]: 59340 and 52650 and 45840 | BRET Acceptor 600 LP raw reading ([2]; plate row C = 10 uM): 490 and 470 | BRET Donor 450 BP raw reading ([2]; plate row C = 10 uM): 54740 and 47760 and 46640 | BRET Acceptor 600 LP raw reading ([2]; plate row D = 5 uM): 630 and 600 and 430 | BRET Donor 450 BP raw reading ([2]; plate row D = 5 uM): 56000 and 46130 and 45780 | BRET Donor 450 BP raw reading ([2]; plate row E = 2.5 uM): 54130 and 32300 and 33550 | BRET Acceptor 600 LP raw reading ([2]; plate row F = 1.25 uM (plate map)): 470 and 380 and 260 | IC50 ([2]; read-out: NanoBRET Abs IC50): 6.3 µM | IC50 ([2]; read-out: NanoBRET IC50): 7.7 µM | IC50 [3]: 7.2 µM
Structure (SMILES): CC(=O)N1CCC[C@]12CC=CCCCC1(CCCC=CCCCOC(=O)N3CC[C@@](C(=O)N[C@@H](Cc4ccsc4)C(=O)N[C@@H](Cc4csc5ccccc45)C(=O)N[C@@H](CCC(N)=O)C(=O)N[C@H](C)C(N)=O)(C3)NC(=O)[C@H](CC(N)=O)NC(=O)[C@H](Cc3ccccc3)NC(=O)[C@H](C)NC(=O)[C@H](C)NC(=O)[C@H](CC(=O)O)NC(=O)[C@H](CC(=O)O)NC1=O)NC(=O)[C@H](CC(C)(C)C)NC(=O)[C@H](CC(=O)O)NC2=O (stereo partly drawn) [I-822, Ac-PL3-Asp-Npg-B5-Asp-Asp-Ala-Ala-Phe-Asn-PyrS2-3Thi-BztA-Gln-dAla-NH2]
